The source of these data is patent US12594350B2, “CD8-specific capture agents, compositions, and methods of using and making” (Regeneron Pharmaceuticals, Inc., priority 2016, dated 2026).

pEC50: −log10 of the molar value. Bridge positions count the residues as written; N and C are the ends. Square brackets hold non-standard residues; d marks the D form. Triazole bridges read from a SMILES are 1,4-linked. Ends that are not written are not given here. Peptide text beside a SMILES is read from it. * marks the point of attachment. Biotin = O=C1N[C@H]2[C@H](CS[C@H]2CCCCC(=O)*)N1; Lys(N3) = [N-]=[N+]=NCCCC[C@H](N)C(=O)O; Pra = C#CC[C@H](N)C(=O)O; AEA = NCCOCC(=O)O

Data set [1] deals with His-tagged CD8α human recombinant protein (Homo sapiens, UniProt P01732). Briefly: CD8 ELISA (affinity assay) of biligands to determine cooperativity. In kind it is binding. Also noted: purchased Origene TP760215. The note with it: biotinylated biligand immobilized on NeutrAvidin plate; CD8α titrated 200 to 0 nM; read-out: EC50 against CD8. As to the method: CD8 ELISA (Affinity assay). […] The plate was then blocked with 2 μM Biotin for 15 min.
Chain of His-tagged CD8α human recombinant protein (P01732 22-235): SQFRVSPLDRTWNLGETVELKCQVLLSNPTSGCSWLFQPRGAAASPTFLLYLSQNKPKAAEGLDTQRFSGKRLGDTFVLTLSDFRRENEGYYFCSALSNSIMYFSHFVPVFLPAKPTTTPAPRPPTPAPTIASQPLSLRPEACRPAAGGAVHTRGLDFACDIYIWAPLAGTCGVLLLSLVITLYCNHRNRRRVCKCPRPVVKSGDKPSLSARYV
This predicts that an optimized linker to covalently join two PCC macrocycles will have a length near 28.2 Å. In FIG. 17 that prediction is validated by testing polyethylene glycol (PEG) linkers of varying lengths. […] This represents a >30-fold improvement in affinity relative to the individual PCC macrocyclic ligands. Shorter or longer linkers yield biligand affinities that, while improved over either of the PCC macrocycles, are about ˜10-fold below that of the optimal linker.
(In general: An ELISA detects its analyte on a solid surface through an enzyme-linked reagent.)

A short description of data set [2]: In vivo PET imaging, PK and biodistribution in normal mice. The note with it: normal mouse, intravenous via tail vein, 50-100 μCi.
Protocol: In vivo PK of the radiolabeled macrocycle anchors and biligands was visualized and quantitatively determined by PET imaging in normal (healthy) mice. Radiolabeled peptides were formulated in PBS pH 7.4 containing <10% EtOH. 50-100 μCi of radiolabeled peptide was administered intravenously via the tail vein of each mouse. Dynamic (0-1 hour) and static PET imaging was performed to quantify initial peptide biodistribution, time to clear the initial concentration sites, and final excretion route. A CT scan was subsequently acquired for anatomical reference. Imaging was performed on GENISYS8 and Inveon microPET-CT small animal scanners.
Data set [3] deals with human PBMCs. Put plainly: Cellular binding assay of CD8 biligand by flow cytometry. In kind it is cell-based. As to conditions: human PBMCs co-stained with CD3-APC mAb; biligand 5 μM. As to the method:
Cryopreserved human peripheral blood mononuclear cells (PBMCs) from Zen-Bio (1 donor; #SER-PBMC-F) were thawed using Lymphocyte Medium (#LYMPH-1, Zen-Bio) following the vendor's protocol. Cells were then resuspended in FACS buffer (1× Dulbecco's Phosphate-Buffered Saline+2% Fetal Bovine Serum+2 mM EDTA).
Protocol: A total of 1×10^6 human PBMCs in 50 μL of FACs buffer was incubated with 0.5 μL of Alexa Fluor 488-labeled biligand Cy(HGRGH) (SEQ ID NO: 21)-PEG5-Cy(AKYRG) (SEQ ID NO: 8) (final concentration: 5 μM), 2 μL of human CD3-APC mAb (clone: BW264/56) (#130-098-156, MACS Miltenyi Biotec), and 2.5 μL of 7-AAD Viability Staining Solution (#00-6993, eBioscience) at room temperature for 30 min. […] Data were obtained and analyzed with FACSCalibur and FACSDiva v8.0.1 (BD Biosciences), respectively.
Flow cytometry was used to evaluate biligand detection of cellular CD8. […] Samples were then washed and analyzed for green (CD8; FITC-A) and red (CD3; APC-A) fluorescence. […] The cell populations in Q2 (10.9%) and Q4 (11.6%) were detected by the biligand as CD8+ and are consistent with the % CD8+ cells reported by the vendor. […] The cell populations detected by the CD8-FITC mAb were 11.2% in Q2 and 2.1% in Q4.

As a reminder, the pEC50 is −log10 of the EC50, conventionally taken in molar units. Turning to `C[C@H](O)[C@H]1NC(=O)[C@@H](Cc2c[nH]cn2)NC(=O)CNC(=O)[C@@H](N)CCCCn2cc(nn2)C[C@@H](C(=O)N[C@@H](CCCCNC(=O)CCCC[C@@H]2SC[C@@H]3NC(=O)N[C@@H]32)C(=O)NCCOCC(=O)N[C@H]2CCCCn3cc(nn3)C[C@@H](C(N)=O)NC(=O)[C@@H](Cc3c[nH]cn3)NC(=O)CNC(=O)[C@@H](CCCNC(=N)N)NC(=O)CNC(=O)[C@@H](Cc3c[nH]cn3)NC2=O)NC(=O)[C@H]2CCCN2C(=O)[C@@H](Cc2c[nH]c3ccccc23)NC1=O` [Cy(Ghtwp)-Lys (Biotin)-PEG1-Cy(hGrGh)] (H-[Lys(N3)]G[dH][dT][dW][dP][Pra]K(Biotin)[AEA][Lys(N3)][dH]G[dR]G[dH][Pra]-NH2; triazole 1-7, 10-16), in data set [1], the pEC50 is 10.24. In the case of `O=Cc1ccc([18F])cc1` [[^18F]FB, 4-[^18F]fluorobenzaldehyde], the “biodistribution and clearance route by PET (in words)” value in data set [2] is “rapid kidney uptake and clearance, then near exclusive bladder occupancy by 30 minutes”. With “Alexa Fluor 488-labeled biligand Cy(HGRGH)-PEG5-Cy(AKYRG): biligand Cy(HGRGH)-PEG5-Cy(AKYRG) resynthesized with an Alexa Fluor 488 label (not fully specified (bridges); also: PEG5 linker joins the two macrocycles, Alexa Fluor 488 label, site not given here)”, in data set [3], the “cell population in Q2 detected as CD8+” value worked out at 10.9% and the “cell population in Q4 detected as CD8+” value is given as 11.6%.
